Assay results taken from PubChem BioAssay (NCI).
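Step 1: Grow cells in 96-well plates. Step 2: Expose to compound for 48 hours at 5 concentrations. Step 3: Interpolate endpoints linearly; if unreached, use highest concentration. TGI marks complete inhibition of growth.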

Key:
Experiment in all cases: growth of human tumour cells (NCI), 48 h
[1] = tested on: 786-0 renal
[2] = tested on: A498 renal
[3] = tested on: A549 NSCLC
[4] = tested on: ACHN renal
[5] = tested on: BT-549 breast
[6] = tested on: CAKI-1 renal
[7] = tested on: CCRF-CEM leukemia
[8] = tested on: COLO 205 colon
[9] = tested on: DU-145 prostate
[10] = tested on: EKVX NSCLC
[11] = tested on: HCC-2998 colon
[12] = tested on: HCT-116 colon
[13] = tested on: HCT-15 colon
[14] = tested on: HL-60(TB) leukemia
[15] = tested on: HOP-62 NSCLC
[16] = tested on: HOP-92 NSCLC
[17] = tested on: HS 578T breast
[18] = tested on: HT29 colon
[19] = tested on: IGROV1 ovarian
[20] = tested on: K-562 leukemia
[21] = tested on: KM12 colon
[22] = tested on: LOX IMVI melanoma
[23] = tested on: M14 melanoma
[24] = tested on: MALME-3M melanoma
[25] = tested on: MCF7 breast
[26] = tested on: MDA-MB-231 breast
[27] = tested on: MDA-MB-435
[28] = tested on: MDA-N
[29] = tested on: MOLT-4 leukemia
[30] = tested on: NCI-H226 lung
[31] = tested on: NCI-H23 lung
[32] = tested on: NCI-H460 lung
[33] = tested on: NCI-H522 lung
[34] = tested on: OVCAR-3 ovarian
[35] = tested on: OVCAR-4 ovarian
[36] = tested on: OVCAR-5 ovarian
[37] = tested on: OVCAR-8 ovarian
[38] = tested on: PC-3 prostate
[39] = tested on: RPMI-8226 leukemia
[40] = tested on: RXF 393 renal
[41] = tested on: SF-268 CNS
[42] = tested on: SF-295 CNS
[43] = tested on: SF-539 CNS
[44] = tested on: SK-MEL-2 melanoma
[45] = tested on: SK-MEL-28 melanoma
[46] = tested on: SK-MEL-5 melanoma
[47] = tested on: SK-OV-3 ovarian
[48] = tested on: SN12C renal
[49] = tested on: SNB-19 CNS
[50] = tested on: SNB-75 CNS
[51] = tested on: SW-620 colon
[52] = tested on: T-47D breast
[53] = tested on: TK-10 renal
[54] = tested on: U251 CNS
[55] = tested on: UACC-257 melanoma
[56] = tested on: UACC-62 melanoma
[57] = tested on: UO-31 renal
[58] = tested on: SR leukemia
[59] = tested on: NCI/ADR-RES ovarian

## CC(=O)O[C@H]1CC[C@@]2(C)C(=CC[C@@H]3[C@@H]2CC[C@]2(C)c4nc(N)c(C#N)cc4C[C@@H]32)C1
[1]
  TGI: > 96 µM
[2]
  TGI: > 100 µM
[3]
  TGI: > 100 µM
[4]
  TGI: > 100 µM
[5]
  TGI: > 63.7 µM
[6]
  TGI: > 100 µM
[7]
  TGI: > 89.5 µM
[8]
  TGI: > 100 µM
[9]
  TGI: > 100 µM
[10]
  TGI: > 86.9 µM
[11]
  TGI: > 100 µM
[12]
  TGI: > 100 µM
[13]
  TGI: > 42.6 µM
[14]
  TGI: > 94.9 µM
[15]
  TGI: 46.5 µM
[16]
  TGI: > 100 µM
[17]
  TGI: > 95.2 µM
[18]
  TGI: > 62.2 µM
[19]
  TGI: > 100 µM
[20]
  TGI: > 100 µM
[21]
  TGI: > 100 µM
[22]
  TGI: > 100 µM
[23]
  TGI: > 100 µM
[24]
  TGI: > 100 µM
[25]
  TGI: > 100 µM
[26]
  TGI: > 100 µM
[27]
  TGI: > 100 µM
[28]
  TGI: > 100 µM
[29]
  TGI: > 100 µM
[30]
  TGI: > 100 µM
[31]
  TGI: > 100 µM
[32]
  TGI: > 100 µM
[33]
  TGI: > 100 µM
[34]
  TGI: 23.8 µM
[35]
  TGI: > 86.9 µM
[36]
  TGI: > 100 µM
[37]
  TGI: > 100 µM
[38]
  TGI: > 100 µM
[39]
  TGI: > 100 µM
[40]
  TGI: 49 µM
[41]
  TGI: > 100 µM
[42]
  TGI: > 100 µM
[43]
  TGI: 64 µM
[44]
  TGI: > 100 µM
[45]
  TGI: > 100 µM
[46]
  TGI: 43.4 µM
[47]
  TGI: > 83.8 µM
[48]
  TGI: > 100 µM
[49]
  TGI: > 100 µM
[50]
  TGI: 23.6 µM
[51]
  TGI: > 100 µM
[52]
  TGI: > 96.6 µM
[53]
  TGI: > 100 µM
[54]
  TGI: > 100 µM
[55]
  TGI: > 100 µM
[56]
  TGI: > 100 µM
[57]
  TGI: > 100 µM

## Cc1nc2ccccc2c(=O)n1NC(=O)Cc1ccccc1
[1]
  TGI: > 100 µM
[2]
  TGI: > 100 µM
[3]
  TGI: > 100 µM
[4]
  TGI: > 100 µM
[5]
  TGI: > 100 µM
[7]
  TGI: > 100 µM
[8]
  TGI: > 100 µM
[9]
  TGI: > 100 µM
[10]
  TGI: > 100 µM
[11]
  TGI: > 100 µM
[12]
  TGI: > 100 µM
[14]
  TGI: > 100 µM
[15]
  TGI: > 100 µM
[16]
  TGI: > 100 µM
[17]
  TGI: > 100 µM
[18]
  TGI: > 100 µM
[19]
  TGI: > 100 µM
[20]
  TGI: > 100 µM
[21]
  TGI: > 100 µM
[22]
  TGI: > 100 µM
[23]
  TGI: > 100 µM
[24]
  TGI: > 100 µM
[25]
  TGI: > 100 µM
[26]
  TGI: > 100 µM
[27]
  TGI: > 100 µM
[28]
  TGI: > 100 µM
[29]
  TGI: > 100 µM
[30]
  TGI: > 100 µM
[31]
  TGI: > 100 µM
[32]
  TGI: > 100 µM
[33]
  TGI: > 100 µM
[34]
  TGI: > 100 µM
[35]
  TGI: > 100 µM
[36]
  TGI: > 100 µM
[37]
  TGI: > 100 µM
[38]
  TGI: > 100 µM
[39]
  TGI: > 100 µM
[40]
  TGI: > 100 µM
[41]
  TGI: > 100 µM
[42]
  TGI: > 100 µM
[43]
  TGI: > 100 µM
[45]
  TGI: > 100 µM
[46]
  TGI: > 100 µM
[47]
  TGI: > 100 µM
[48]
  TGI: > 100 µM
[49]
  TGI: > 100 µM
[50]
  TGI: > 100 µM
[58]
  TGI: > 100 µM
[51]
  TGI: > 100 µM
[52]
  TGI: > 100 µM
[53]
  TGI: > 100 µM
[54]
  TGI: > 100 µM
[55]
  TGI: > 100 µM
[56]
  TGI: > 100 µM
[57]
  TGI: > 100 µM

## CC(/C=N/NC1=NCCCCN1)=N\NC1=NCCCCN1
[1]
  TGI: > 100 µM
[3]
  TGI: > 100 µM
[4]
  TGI: > 100 µM
[5]
  TGI: > 100 µM
[6]
  TGI: > 100 µM
[7]
  TGI: > 100 µM
[8]
  TGI: 57 µM
[10]
  TGI: > 100 µM
[11]
  TGI: > 100 µM
[12]
  TGI: > 100 µM
[13]
  TGI: > 100 µM
[15]
  TGI: > 100 µM
[16]
  TGI: > 100 µM
[17]
  TGI: > 100 µM
[18]
  TGI: > 100 µM
[19]
  TGI: > 100 µM
[20]
  TGI: > 100 µM
[21]
  TGI: > 100 µM
[22]
  TGI: > 100 µM
[23]
  TGI: 38.7 µM
[24]
  TGI: 84 µM
[25]
  TGI: > 100 µM
[26]
  TGI: > 100 µM
[27]
  TGI: > 100 µM
[28]
  TGI: > 100 µM
[29]
  TGI: > 100 µM
[30]
  TGI: > 100 µM
[31]
  TGI: > 100 µM
[32]
  TGI: > 100 µM
[33]
  TGI: > 100 µM
[59]
  TGI: > 100 µM
[34]
  TGI: > 100 µM
[35]
  TGI: > 100 µM
[36]
  TGI: > 100 µM
[37]
  TGI: > 100 µM
[38]
  TGI: > 100 µM
[39]
  TGI: > 100 µM
[40]
  TGI: > 100 µM
[41]
  TGI: > 100 µM
[42]
  TGI: > 100 µM
[43]
  TGI: > 100 µM
[45]
  TGI: > 100 µM
[46]
  TGI: > 100 µM
[47]
  TGI: > 100 µM
[48]
  TGI: > 100 µM
[49]
  TGI: > 100 µM
[50]
  TGI: > 100 µM
[58]
  TGI: > 100 µM
[51]
  TGI: > 100 µM
[52]
  TGI: > 100 µM
[53]
  TGI: > 100 µM
[54]
  TGI: > 100 µM
[55]
  TGI: > 100 µM
[56]
  TGI: > 100 µM
[57]
  TGI: > 100 µM

## O=C(/C=C/c1cccs1)c1ccsc1
[1]
  TGI: > 100 µM
[2]
  TGI: > 100 µM
[3]
  TGI: > 100 µM
[4]
  TGI: 42.6 µM
[6]
  TGI: > 100 µM
[7]
  TGI: 45.5 µM
[8]
  TGI: 38 µM
[9]
  TGI: > 100 µM
[10]
  TGI: > 100 µM
[11]
  TGI: 34.9 µM
[13]
  TGI: 40.5 µM
[14]
  TGI: 42.1 µM
[15]
  TGI: > 100 µM
[18]
  TGI: 41.7 µM
[19]
  TGI: 73.6 µM
[20]
  TGI: 89.8 µM
[21]
  TGI: > 10 µM
[22]
  TGI: 35.1 µM
[23]
  TGI: > 100 µM
[24]
  TGI: 59 µM
[25]
  TGI: > 100 µM
[26]
  TGI: > 10 µM
[27]
  TGI: 39.8 µM
[28]
  TGI: 36.3 µM
[29]
  TGI: 40.6 µM
[30]
  TGI: 48.5 µM
[31]
  TGI: 57.6 µM
[32]
  TGI: 60.4 µM
[59]
  TGI: > 100 µM
[35]
  TGI: > 100 µM
[36]
  TGI: > 100 µM
[37]
  TGI: 96.5 µM
[38]
  TGI: 59.1 µM
[39]
  TGI: 45.4 µM
[41]
  TGI: > 100 µM
[42]
  TGI: > 100 µM
[44]
  TGI: > 100 µM
[45]
  TGI: 81.7 µM
[46]
  TGI: 36 µM
[47]
  TGI: > 100 µM
[48]
  TGI: 52.6 µM
[49]
  TGI: 50.8 µM
[50]
  TGI: 89 µM
[58]
  TGI: 38.5 µM
[51]
  TGI: 75.2 µM
[52]
  TGI: 72 µM
[53]
  TGI: 97.6 µM
[54]
  TGI: > 10 µM
[55]
  TGI: 52.3 µM
[56]
  TGI: 38.5 µM
[57]
  TGI: 32.4 µM
